These results are taken from patent US4298375A, “2-Substituted-5-phenyl-4-thiazolecarboxylic acids and their derivatives as safening agents” (Monsanto Company, priority 1979, dated 1981).

Common to all, as to assay type: in vivo
The subject of experiment [1] is sorghum. Briefly: Example 5: safening against triallate, alachlor or butachlor, safener and herbicide incorporated in soil, greenhouse, approximately 21 days. On the set-up: key: (herbicide alone + safener alone, capped at 100) minus combination effect. The conditions noted are these: safening agent 8.96 kg/h. As to the method:
A good grade of top soil is placed in a container and compacted to a depth of approximately 1.27 cm. from the top of said container. A predetermined number of sorghum seeds to be tested are placed on top of the soil. A quantity of soil sufficient to substantially fill the container is measured and placed in a second container. A measured quantity of the safening agent dispersed or dissolved in a suitable carrier is applied to the soil in the second container. A measured quantity of triallate, alachlor or butachlor herbicide dispersed or dissolved in a suitable carrier is then sprayed on the soil already treated with the safening agent. The soil containing the safening agent and the herbicide is thoroughly mixed. This mixing is sometimes referred to as incorporation of the herbicide and safening agent into the soil. The mixing or incorporation provides a substantially uniform distribution of the safening agent and herbicide throughout the soil. The sorghum seeds are covered with the soil containing the safening agent and herbicide and the pans are leveled. The pans are then placed on a sand bench in the greenhouse and watered from below as needed. The sorghum plants are observed at the end of approximately 21 days and the results in terms of percent inhibition of each seed lot are recorded. For each test series a pan of plants is also prepared containing no herbicide and no safening agent as a control. Additionally, for each test, a pan of plants is prepared with soil covering the seed containing no herbicide and only the measured amount of safening agent being incorporated into the soil covering the seeds to ascertain any herbicidal effect of the safening agent alone. For each series of tests the herbicidal effect of the herbicide is observed from pans of sorghum plants tested with the same quantity of herbicide alone. The "safening effect" is determined by adding the herbicidal effect of the herbicide when applied alone to the herbicidal effect of the safening agent when applied alone (in no instance, however, will this sum be greater than 100) and subtracting from that the herbicidal effect obtained when the herbicide and safening agent are incorporated into the soil as discussed above.

The subject of experiment [2] is sorghum. Briefly: Example 6: herbicidal effect on sorghum of alachlor with or without safening agent, soil treated with mixture, approximately 21 days. The note with it: for safening when tested in accordance with the procedure of Example 6: alachlor. As to the method: (§1) A good grade of top soil was placed in a plastic pot and compacted to a depth of approximately 1.27 cm. from the top of said pot. A predetermined number of sorghum seeds and weed seeds were placed on top of the soil. A cover layer, approximately 1.27 cm., was placed on top of said seeds. The soil was then treated with a mixture of the safening agent and alachlor dispersed or dissolved in a suitable solvent. For each test series, pots were treated with only the herbicide. Additionally, pots were treated with only the safening agent. The herbicidal effect was observed approximately 21 days after treatment. Table IV summarizes the results obtained when the compounds of the invention were tested in accordance with the procedure of Example 6. Note that in each test a control is used in which the sorghum plants are treated with various rates of alachlor herbicide alone.

The subject of experiment [3] is Green Foxtail. Briefly: Example 6: herbicidal effect on weed (Green Foxtail) of alachlor with or without safening agent, soil treated with mixture, approximately 21 days. As to the method:
as §1

Where [4] appears, read: alachlor 2.24 kg/h, (herbicide alone + safener alone) minus combination.
The mark [5] stands for this setting: butachlor 6.72 kg/h, value given as symbol *.
[6] abbreviates: triallate 0.56 kg/h, (herbicide alone + safener alone) minus combination.
Setting [7] is: safening agent 8.96 kg/h + alachlor 0.56 kg/h.
[8] abbreviates: safening agent 8.96 kg/h + alachlor 1.12 kg/h.
The mark [9] stands for this setting: safening agent 8.96 kg/h + alachlor 4.48 kg/h.
[10] abbreviates: safening agent 8.96 kg/h alone, alachlor 0.00 kg/h.
[11] abbreviates: safening agent 9.96 kg/h (so in the source) + alachlor, rate not printed on this line (line below 4.48 kg/h).
Where [12] appears, read: butachlor 6.72 kg/h, (herbicide alone + safener alone) minus combination.
Setting [13] is: safening agent 8.96 kg/h + alachlor 2.24 kg/h.
[14] abbreviates: alachlor alone 0.56 kg/h, no safening agent, first test.
Where [15] appears, read: alachlor alone 0.56 kg/h, no safening agent, second test.
Where [16] appears, read: alachlor alone 1.12 kg/h, no safening agent, first test.
Setting [17] is: alachlor alone 1.12 kg/h, no safening agent, second test.
The mark [18] stands for this setting: alachlor alone 2.24 kg/h, no safening agent, first test.
[19] abbreviates: alachlor alone 2.24 kg/h, no safening agent, second test.
[20] abbreviates: alachlor alone 4.48 kg/h, no safening agent, first test.
Where [21] appears, read: alachlor alone 4.48 kg/h, no safening agent, second test.

Each structure is given as a SMILES string.

Take `COC(=O)c1nc(Sc2ccccc2)sc1-c1ccccc1` [Example 4, Methyl 5-Phenyl-2-Phenylthio-4-Thiazolecarboxylate]: the “Safening Effect” value in experiment [1] (setting [4]) is given as 20; in experiment [1] (setting [5]), “* (Observed safening effect was less than 19.)”; in experiment [1] (setting [6]), 35. Further, in experiment [2], the “safening when tested in accordance with the procedure of Example 6” value was “no significant safenin”.

In the case of `COC(=O)c1nc(OC)sc1-c1ccccc1` [Example 3, Methyl 2-Methoxy-5-Phenyl-4-Thiazolecarboxylate], the “Safening Effect” value in experiment [1] (setting [4]) is listed as 23; in experiment [1] (setting [5]), “* (Observed safening effect was less than 19.)”; in experiment [1] (setting [6]), 37. Also, the “% Inhibition Sorghum” value in experiment [2] (setting [7]) came to 50%; in experiment [2] (setting [8]) it was 65%; in experiment [2] (setting [9]) it was 40%; in experiment [2] (setting [10]), 0%; in experiment [2] (setting [11]), 75%. Further, the “% Inhibition Green Foxtail” value worked out at 100% in experiment [3] (setting [7]); 100% in experiment [3] (setting [8]); 100% in experiment [3] (setting [9]); 0% in experiment [3] (setting [10]); 100% in experiment [3] (setting [11]).

Take `COC(=O)c1nc(N)sc1-c1ccccc1` [Example 1, Methyl 2-Amino-5-Phenyl-4-Thiazolecarboxylate]: the entries for the “Safening Effect” value in experiment [1] (setting [4]), in experiment [1] (setting [12]) and in experiment [1] (setting [6]) were 24, 35 and 56, respectively. For the same compound, the “safening when tested in accordance with the procedure of Example 6” value in experiment [2] is “no significant safenin”.

On to `COC(=O)c1nc(Cl)sc1-c1ccccc1` [Example 2, Methyl 2-Chloro-5-Phenyl-4-Thiazolecarboxylate], for which the “Safening Effect” value in experiment [1] (setting [4]) was found to be 20; in experiment [1] (setting [12]), 40; in experiment [1] (setting [6]), 45. Moreover, the “% Inhibition Sorghum” value in experiment [2] (setting [7]) is recorded as 30%; in experiment [2] (setting [8]) it was 65%; in experiment [2] (setting [13]) it was 70%; in experiment [2] (setting [9]), 70%; in experiment [2] (setting [10]), 0%. For the same compound, the “% Inhibition Green Foxtail” value amounted to 100% in experiment [3] (setting [7]); 100% in experiment [3] (setting [8]); 100% in experiment [3] (setting [13]); 100% in experiment [3] (setting [9]); 0% in experiment [3] (setting [10]).

On to `CCc1cccc(CC)c1N(COC)C(=O)CCl` [Alachlor, 2-chloro-2',6'-diethyl-N-(methoxymethyl)acetanilide, reference compound], for which the “% Inhibition Sorghum” value turned out to be 80% in experiment [2] (setting [14]); 80% in experiment [2] (setting [15]); 85% in experiment [2] (setting [16]); 85% in experiment [2] (setting [17]); 90% in experiment [2] (setting [18]); 85% in experiment [2] (setting [19]). In addition, the “% Inhibition Sorghum” value in experiment [2] (setting [20]) is 95%; in experiment [2] (setting [21]) it was 100%. Further, the “% Inhibition Green Foxtail” value is reported as 98% in experiment [3] (setting [14]); 98% in experiment [3] (setting [15]); 99% in experiment [3] (setting [16]); 98% in experiment [3] (setting [17]); 100% in experiment [3] (setting [18]); 98% in experiment [3] (setting [19]). Besides, the “% Inhibition Green Foxtail” value in experiment [3] (setting [20]) and in experiment [3] (setting [21]) was 100% each time.
